This is an account of results in PMC6488579 (2019).

The structures appear in SMILES notation.

Assay [1] has as its system HOC6-S-S-C6-DEX04 (DNA, aptamer) ACACGACGAGGGACGAGGAGTACTTGCCAACGATAACGTCGTTGGATCTGTCTGTGCCC
Description: electrochemical impedance, Rct change.

Assay [2] deals with DEX04 (DNA, aptamer) ATATCATATGCTCCAATTACACGACGAGGGACGAGGAGTACTTGCCAACGATAACGTCGTTGGATCTGTCTGTGCCCATATTACACTTGCGATCT
Description: fluorescence bead-binding, eluted DNA. Particulars: 150 nM aptamer.

Assay [3] concerns DEX05 (DNA, aptamer) ATATCATATGCTCCAATTACAGGCTTGGATTAGTGTATCCAACTAGTATCGTGTATACTAGGCCCTTGCTACCCTGTGATATTACACTTGCGATCT
Description: fluorescence bead-binding saturation, eluted DNA. The following applies: immobilised compound (DXN Sepharose 6β beads); aptamer up to 400 nM; NB [sic].

The test system of assay [4] is DEX03 (DNA, aptamer) ATATCATATGCTCCAATTACGCGTAGGGATGTGTAAGGTCTGTACACCTCGGTTTACTCTATGCTTCGCATATTGTCGATATTACACTTGCGATCT
Description: fluorescence bead-binding saturation, eluted DNA. Particulars: immobilised compound (DXN Sepharose 6β beads); binding buffer; aptamer 50-400 nM.

Assay [5] concerns DEX10 (DNA, aptamer) ATATCATATGCTCCAATTGGACAGCTGGCCGCGAAGCGAGACACGTATAAGGTACTATACGGCTGGCATATGTATCTGATATTACACTTGCGATCT
Description: fluorescence bead-binding saturation, eluted DNA. Particulars: immobilised compound (DXN Sepharose 6β beads); binding buffer; aptamer 50-400 nM.

Assay [6] relates to DEX04 (DNA, aptamer) ATATCATATGCTCCAATTACACGACGAGGGACGAGGAGTACTTGCCAACGATAACGTCGTTGGATCTGTCTGTGCCCATATTACACTTGCGATCT
Description: fluorescence bead-binding saturation, eluted DNA. Particulars: immobilised compound (DXN Sepharose 6β beads); binding buffer; aptamer 50-400 nM.

For assay [7], the system named is DEX01 (DNA, aptamer) ATATCATATGCTCCAATTACACCCCACGTAGTGTCACAGCACGCTTATAGTAAGTGAAGTGACGGGTTGCTGATGTGATATTACACTTGCGATCT
Description: fluorescence bead-binding saturation, eluted DNA. The following applies: immobilised compound (DXN Sepharose 6β beads); binding buffer; aptamer 50-400 nM.

The subject of assay [8] is DEX06 (DNA, aptamer) ATATCATATGCTCCAATTACACACGAAACACAAGCAGTGAGACTGCCTACGTCCGTAGTTGTGTTGAGTTTGCTCTCCATATTACACTTGCGATCT
Description: fluorescence bead-binding saturation, eluted DNA. Particulars: immobilised compound (DXN Sepharose 6β beads); aptamer up to 400 nM; NB [sic].

The mark [9] stands for this setting: highest tested 1 nM (below detection limit for DXN), measured in 10 mM PBS pH 7.4.

As to `C#C[C@]1(O)CC[C@H]2[C@@H]3CCC4=CC(=O)CC[C@@H]4[C@H]3CC[C@@]21C`, the binding entry in assay [1] (setting [9]) is given as “no”; in assay [2] (immobilised compound (NET beads, 5 µL, 6–14 µmol/mL)), “no”.

Regarding `CC(=O)[C@H]1CC[C@H]2[C@@H]3CCC4=CC(=O)CC[C@]4(C)[C@H]3CC[C@]12C`, the binding result is listed as “no” in assay [1] (setting [9]) and “no” in assay [2] (immobilised compound (P4 beads, 20 µL, 4.4 nmol/mL)).

On to `C[C@@H]1C[C@H]2[C@@H]3CCC4=CC(=O)C=C[C@]4(C)[C@@]3(F)[C@@H](O)C[C@]2(C)[C@@]1(O)C(=O)CO`, for which the binding entry in assay [1] (free DXN 50 and 100 nM, 10 mM PBS pH 7.4, 10 mM ferri/ferrocyanide) is on record as “yes”; in assay [3], “no”; in assay [8], “no”. For the same compound, the KD in assay [4] stood at 72.83 nM; in assay [5], 715 nM; in assay [6], 18.35 nM; in assay [7], 15.71 nM.

Consider `C[C@]12CC[C@@H]3c4ccc(O)cc4CC[C@H]3[C@@H]1CC[C@@H]2O`, for which the binding entry in assay [1] (setting [9]) is on record as “no”; in assay [2] (immobilised compound (E2 beads, 5 µL, 6–14 µmol/mL)) it was “no”.
